Assay: MMV: Gametocytes from P. falciparum reporter strain NF54-deltaPf47-5'hsp70-GFP::Luc were exposed to serial dilutions of compounds for 24 hours. Subsequently, compounds were washed out and gametocytes were fed to Anopheles stephensi mosquitoes. Three compounds were tested at six dilutions in one experimental run. All conditions were tested in duplicate in two different experimental runs. Each run included duplicate feeders for vehicle (0.1% DMSO) and positive (10 uM dihydroartemisinin) controls. Eight days post-feeding, oocyst densities were determined by assessment of luminescence signals in homogenized mosquitoes. Up to 24 mosquitoes were analysed per feeder. Luminescence data from individual mosquitoes were normalized against the average signals from the vehicle control feeds that were included in each run. IC50 values were determined by fitting a four-parameter logistic regression model using maximum likelihood optimization to find the best fit.
Assay type: functional, Plasmodium falciparum
Details: not given; call rule not given here
For CC1CN(C(=O)c2sc3ccccc3c2Cl)CC(C)O1 (stereo not drawn), the IC50 was “Not active”. In the case of OC(CNC1CCCCC1)Cn1c2ccc(I)cc2c2cc(I)ccc21 (stereo not drawn), the IC50 is reported as “Not active”.

Same assay, conditions: read-out: IC50
With CN(C)CCCNc1c2ccccc2nc2ccccc12 the IC50 was 1170 nM. With COc1ccc(C2c3ccc4ccccc4c3Oc3ncn(CCCN(C)C)c(=N)c32)cc1 (stereo not drawn) the IC50 was 58.9 nM. In the case of COc1ccc(-c2c(C)nn3c(N)c(C#N)cnc23)cc1OC, the IC50 is reported as 3630 nM. Compound CCOC(=O)c1cnc2ccc(CC)cc2c1O has an IC50 of 110 nM. Compound Cc1ccc(-c2cc3c(nn2)-c2ccccc2C3=O)cc1 has an IC50 of 1260 nM. With CCOC(=O)C1=C(C)N=c2sc(=Cc3cc(Cl)ccc3O)c(=O)n2C1c1ccc(OC)cc1 (stereo not drawn) the IC50 was 3240 nM. COC(=O)c1ccc(C2C3=C(O)CC(c4ccc(F)cc4)CC3=Nc3ccccc3N2C(=O)c2ccccc2)cc1 (stereo not drawn) gave an IC50 of 8510 nM. Work on Cc1sc2ncnc(Sc3nc4ccccc4[nH]3)c2c1C yielded an IC50 of 1290 nM. CCN(CC)CCn1c(=N)n(CC(O)c2ccc(Cl)c(Cl)c2)c2ccccc21 (stereo not drawn) gave an IC50 of 1660 nM. In the case of O=C(NC1CCN(Cc2ccccc2)CC1)c1cc(C(=O)NC2CCN(Cc3ccccc3)CC2)cc(C(=O)NC2CCN(Cc3ccccc3)CC2)c1, the IC50 is reported as 1170 nM. Compound Clc1cc(Br)ccc1-c1ccc(CNCC2CCNCC2)o1 has an IC50 of 74.1 nM. Compound CCOC(=O)c1cn(CC)c2cc(N3CCCCC3)c(F)cc2c1=O has an IC50 of 95.5 nM. For CC(C)(C)c1ccc2c(c1)CN(Cc1ccc(Cl)cc1)CO2, the IC50 was 589 nM. In the case of CC1=C(CC(=O)c2cccc([N+](=O)[O-])c2)C(=O)c2ccccc2C1=O, the IC50 is reported as 1410 nM. OC1CCCCC1C1(NC(=S)Nc2ccccc2)CCCCC1 (stereo not drawn) gave an IC50 of 1740 nM. Compound CN(C)c1ccc(C(O)(c2ccc(N(C)C)cc2)c2ccc(N(C)C)cc2)cc1 [METHYLROSANILINE] has an IC50 of 38.9 nM.

— ChEMBL document CHEMBL3430850, “MMV Malaria Box gametocyte standard membrane feeding assay screening”
